Like-named read-outs stand apart in the source and are kept apart here.
Assay: Phase 1 pharmacokinetic study of a single oral dose of 20 mg E4 monohydrate in female subjects with normal hepatic function and mild, moderate or severe hepatic impairment (plasma, LC-MS/MS, non-compartmental analysis)
Format: in vivo, human
Conditions: for AUC0-24 h, GM / CL/F, GM / CL/F, Mean / CL/F, Median / Cmax, Mean / λz, GM / λz, Mean / λz, Median / Tmax / AUC(0-inf) / Cmax / AUC(0-t) / half-life / Vd/F: plasma; for Tmax / AUC(0-inf) / Cmax / AUC(0-t) / half-life / Vd/F: female, human, 20 mg
Protocol: This was a Phase 1, multi-centre, open-label, PK, and safety study of a single oral dose of 20 mg E4 monohydrate in female subjects with normal hepatic function (Group 1), mild hepatic impairment (Group 2), moderate hepatic impairment (Group 3), and severe hepatic impairment (Group 4), as defined using the Child-Pugh classification at Screening.
The study consisted of an eligibility Screening period (within 28 days prior to study drug administration), an Assessment Period with in-house period and outpatient visits (including a single oral dose of 20 mg E4 on Day 1), and a follow up visit. All subjects were confined to the study site from Day-1 (the day before dosing) until Day 4 and returned to the site every day from Day 5 to Day 9. Alternatively, the subjects could stay for a prolonged in-house period in agreement with the Investigator. The follow-up visit occurred on Day 14 (+2 days).
All subjects arrived at the study site in the morning of Day-1 in a fasted state (no food for at least 8 h, water was allowed) to have the scheduled assessments performed in order to confirm eligibility as outlined in the inclusion and exclusion criteria (Section 2.3.1 and Section 2.3.2, respectively). In the morning of Day 1 following an overnight fast, the subjects received oral dosing of 20 mg E4 monohydrate and remained at the site. Study-related assessments were performed at time points indicated in the Schedule of Assessments in Table 2.
Serial blood sampling for PK assessments started on Day 1 and proceeded until Day 9 according to the Pharmacokinetic Sampling Schedule presented in Table 3.
Each enrolled subject was to receive a single oral dose of 20 mg of E4 (estetrol) as monohydrate as a film-coated tablet.
Study drug was administered to subjects in the morning after an overnight fast of at least 8 h.
Calculation of non-compartmental PK parameters were done using WinNonlin™ Professional, Version 6.3 or higher.
The primary PK parameters to be analyzed for E4 in plasma: • Cmax=maximum observed plasma concentration • AUCinf=area under the concentration-time curve (AUC) from time zero extrapolated to infinity
The analysis of E4 and the metabolites E4-3-glucuronide and E4-16-glucuronide in plasma samples were performed at the Bioanalytical Laboratory of the CRO using a validated liquid chromatography-mass spectrometry/mass spectrometry method.
Individual and mean plasma concentrations at each sampling time point for E4 are presented by listings and descriptive summary statistics including means, geometric means (GMs), medians, ranges, standard deviations (SD) and coefficients of variation (CV). Individual, mean and/or median concentrations per hepatic function group were plotted versus time on semilogarithmic scales.
PK parameters were calculated by non-compartmental analysis. PK parameters were analysed using descriptive statistics and are presented by hepatic function group.
Analysis of variance (ANOVA) were used to compare primary PK parameters of E4 (Cmax and AUCinf) between subjects with hepatic impairment and subjects with normal hepatic function in an exploratory approach, using the log-transformed value of each PK parameter as dependent variable, and the hepatic impairment group (normal, mild, moderate, and severe) as a fixed classification factor. Geometric least squares means were used to calculate the ratios of primary PK parameters for each hepatic impairment group to those in the control group, along with 90% confidence intervals (CIs).
Additionally, the impact of age and BMI on the effect of hepatic impairment were evaluated using an ANOVA model similar as the ANOVA model described above, but with the interaction between each factor and the hepatic impairment group included as an additional factor.
The relationship between log-transformed PK parameters (Cmax and AUCinf) and continuous parameters (albumin, total bilirubin, and prothrombin time) used for the Child-Pugh score was explored by a linear regression approach. […]

[1] = Mild hepatic impairment, single oral dose 20 mg E4 monohydrate
[2] = Moderate hepatic impairment, single oral dose 20 mg E4 monohydrate
[3] = Moderate vs. Normal, one-way ANOVA
[4] = Normal hepatic function, single oral dose 20 mg E4 monohydrate
[5] = Severe hepatic impairment, single oral dose 20 mg E4 monohydrate
[6] = Severe vs. Normal, one-way ANOVA

C[C@]12CC[C@@H]3c4ccc(O)cc4CC[C@H]3[C@@H]1[C@@H](O)[C@@H](O)[C@@H]2O [E4, 1,3,5 (10)-estratrien-3,15alpha, 16alpha, 17beta-tetrol]
AUC0-24 h, GM [1]: 69.76 ng·h/mL | CL/F, GM [1]: 171.23 L/h | CL/F, Mean [1]: 177.13 L/h | CL/F, Median [1]: 188.75 L/h | Cmax, Mean [1]: 38.363 ng/mL | λz, GM [1]: 0.0300 h⁻¹ | λz, Mean [1]: 0.0373 h⁻¹ | λz, Median [1]: 0.0428 h⁻¹ | AUCinf, Geometric Mean Ratio (Test/Reference) Estimate (Mild vs. Normal, one-way ANOVA): 1.120 | Cmax, Geometric Mean Ratio (Test/Reference) Estimate (Mild vs. Normal, one-way ANOVA): 1.661 | AUC0-24 h, GM [2]: 88.75 ng·h/mL | CL/F, GM [2]: 185.80 L/h | CL/F, Mean [2]: 214.77 L/h | CL/F, Median [2]: 175.13 L/h | Cmax, Mean [2]: 52.410 ng/mL | λz, GM [2]: 0.0500 h⁻¹ | λz, Mean [2]: 0.0520 h⁻¹ | λz, Median [2]: 0.0493 h⁻¹ | AUCinf, Geometric Mean Ratio (Test/Reference) Estimate [3]: 1.032 | Cmax, Geometric Mean Ratio (Test/Reference) Estimate [3]: 1.896 | AUC0-24 h, GM [4]: 60.41 ng·h/mL | CL/F, GM [4]: 191.77 L/h | CL/F, Mean [4]: 200.09 L/h | CL/F, Median [4]: 177.60 L/h | Cmax, Mean [4]: 23.878 ng/mL | λz, GM [4]: 0.0300 h⁻¹ | λz, Mean [4]: 0.0329 h⁻¹ | λz, Median [4]: 0.0307 h⁻¹ | AUC0-24 h, GM [5]: 179.05 ng·h/mL | CL/F, GM [5]: 101.25 L/h | CL/F, Mean [5]: 104.83 L/h | CL/F, Median [5]: 111.40 L/h | Cmax, Mean [5]: 117.025 ng/mL | λz, GM [5]: 0.0800 h⁻¹ | λz, Mean [5]: 0.0905 h⁻¹ | λz, Median [5]: 0.1108 h⁻¹ | AUCinf, Geometric Mean Ratio (Test/Reference) Estimate [6]: 1.894 | Cmax, Geometric Mean Ratio (Test/Reference) Estimate [6]: 5.359 | plasma levels at 24 h after administration (comparison among hepatic function groups): in the same range among the different hepatic function groups | Tmax (oral, across all hepatic function groups, read-out: Tmax, range): 0.23 to 1.92 h | Tmax (oral, all hepatic function groups, read-out: Median Tmax, range over the hepatic function groups): 0.25 to 0.5 h | AUC(0-inf) (po, Mild (Test), one-way ANOVA, single oral dose 20 mg, read-out: AUCinf, Geometric LS Mean): 117 ng·h/mL | Cmax (po, Mild (Test), one-way ANOVA, single oral dose 20 mg, read-out: Cmax, Geometric LS Mean): 34.5 ng/mL | AUC(0-t) (po, Mild hepatic impairment, single oral dose 20 mg E4 monohydrate, read-out: AUC0-24 h, GM): 69.8 ng·h/mL | AUC(0-t) (po, Mild hepatic impairment, single oral dose 20 mg E4 monohydrate, read-out: AUC0-24 h, Mean): 72.9 ng·h/mL | AUC(0-t) (po, Mild hepatic impairment, single oral dose 20 mg E4 monohydrate, read-out: AUC0-24 h, Median): 66.3 ng·h/mL | AUC(0-inf) (po, Mild hepatic impairment, single oral dose 20 mg E4 monohydrate, read-out: AUCinf, GM): 117 ng·h/mL | AUC(0-inf) (po, Mild hepatic impairment, single oral dose 20 mg E4 monohydrate, read-out: AUCinf, Mean): 122 ng·h/mL | AUC(0-inf) (po, Mild hepatic impairment, single oral dose 20 mg E4 monohydrate, read-out: AUCinf, Median): 106 ng·h/mL | AUC(0-t) (po, Mild hepatic impairment, single oral dose 20 mg E4 monohydrate, read-out: AUClast, GM): 116 ng·h/mL | AUC(0-t) (po, Mild hepatic impairment, single oral dose 20 mg E4 monohydrate, read-out: AUClast, Mean): 121 ng·h/mL | AUC(0-t) (po, Mild hepatic impairment, single oral dose 20 mg E4 monohydrate, read-out: AUClast, Median): 105 ng·h/mL | Cmax (po, Mild hepatic impairment, single oral dose 20 mg E4 monohydrate, read-out: Cmax, GM): 34.5 ng/mL | Cmax (po, Mild hepatic impairment, single oral dose 20 mg E4 monohydrate, read-out: Cmax, Mean): ~38 ng/mL | Cmax (po, Mild hepatic impairment, single oral dose 20 mg E4 monohydrate, read-out: Cmax, Median): 34.9 ng/mL | half-life (po, Mild hepatic impairment, single oral dose 20 mg E4 monohydrate, read-out: T1/2, GM (converted)): 20.1 h | half-life (po, Mild hepatic impairment, single oral dose 20 mg E4 monohydrate, read-out: T1/2, Mean (converted)): 22.1 h | half-life (po, Mild hepatic impairment, single oral dose 20 mg E4 monohydrate, read-out: T1/2, Median (converted)): 16.2 h | Tmax (po, Mild hepatic impairment, single oral dose 20 mg E4 monohydrate, read-out: Tmax, Median): 0.375 h | Vd/F (po, Mild hepatic impairment, single oral dose 20 mg E4 monohydrate, read-out: Vz/F, GM): 4960 L | Vd/F (po, Mild hepatic impairment, single oral dose 20 mg E4 monohydrate, read-out: Vz/F, Mean): 5830 L | Vd/F (po, Mild hepatic impairment, single oral dose 20 mg E4 monohydrate, read-out: Vz/F, Median): 4800 L | AUC(0-inf) (po, Moderate (Test), one-way ANOVA, single oral dose 20 mg, read-out: AUCinf, Geometric LS Mean): 108 ng·h/mL | Cmax (po, Moderate (Test), one-way ANOVA, single oral dose 20 mg, read-out: Cmax, Geometric LS Mean): 39.4 ng/mL | AUC(0-t) (po, Moderate hepatic impairment, single oral dose 20 mg E4 monohydrate, read-out: AUC0-24 h, GM): 88.8 ng·h/mL | AUC(0-t) (po, Moderate hepatic impairment, single oral dose 20 mg E4 monohydrate, read-out: AUC0-24 h, Mean): 103 ng·h/mL | AUC(0-t) (po, Moderate hepatic impairment, single oral dose 20 mg E4 monohydrate, read-out: AUC0-24 h, Median): 92.6 ng·h/mL | AUC(0-inf) (po, Moderate hepatic impairment, single oral dose 20 mg E4 monohydrate, read-out: AUCinf, GM): 108 ng·h/mL | AUC(0-inf) (po, Moderate hepatic impairment, single oral dose 20 mg E4 monohydrate, read-out: AUCinf, Mean): 123 ng·h/mL | AUC(0-inf) (po, Moderate hepatic impairment, single oral dose 20 mg E4 monohydrate, read-out: AUCinf, Median): 115 ng·h/mL | AUC(0-t) (po, Moderate hepatic impairment, single oral dose 20 mg E4 monohydrate, read-out: AUClast, GM): 107 ng·h/mL

Reference: patent US20260207623A1, “USE OF ESTETROL IN HEPATICALLY IMPAIRED PATIENTS” (ESTETRA SRL, priority 2022, published 2026)
